US11578056B2, “Solid forms comprising (S)-2-(2,6-dioxopiperidin-3-yl)-4-((2-fluoro-4-((3-morpholinoazetidin-1-yl)methyl)benzyl)amino)isoindoline-1,3-dione and salts thereof, and compositions comprising and methods of using the same” (Celgene Corporation, priority 2019, dated 2023)

Key:
Experiment in all cases: Hematological cell line viability/apoptosis flow cytometry assay
Format in all cases: cell-based
[1] = test system: Mec2 cell line; conditions: Mec2 (CLL), 120 h
Description: (§1) Cell Proliferation and Viability Assay Using Hematological Cell Lines: The following exemplary anti-proliferative assay uses exemplary hematological cell lines in the following. The in vitro growth inhibitory activity of Compound 1 described herein was evaluated using a 384-well flow cytometry assay.
(§2) The cell lines were plated in 384-well flat bottom plates and assessed with increasing concentrations of compound ranging from 0.00015 to 10 μM or dimethyl sulfoxide (DMSO) control. The final concentration of DMSO was 0.1% (v/v). Following the addition of Compound 1 or DMSO and incubation for 120 hours, cell number and cell death were analyzed by flow cytometry (Attune®, Thermo Fisher) using Annexin V and the live-cell impermeant DNA dye, DRAQ7. Phosphatidylserine translocates from the inner layer to the outer layer of the cell membrane early in apoptosis and Annexin V binds to the exposed phosphatidylserine found on the surface of an apoptotic cell. The vital dye DRAQ7 is excluded by intact live cells and only stains cells that have died as a result of apoptosis or necrosis.
(§3) Flow cytometry data analysis was then performed using the Flow Jo_v10 software to determine the number of viable cells (Annexin V and DRAQ7 double negative staining cells) and percentage of apoptotic cells (Annexin V positive cells) for each condition. The live cell count for every concentration was normalized to the DMSO control (considered as 100%) to calculate the percentage of viable cells remaining after treatment and graphed using GraphPad Prism 7.03. The IC50 (50% inhibitory concentration) and Emax (maximum efficacy achieved) values were then calculated by performing nonlinear regression curve fitting using log(inhibitor) vs. normalized response—variable slope analysis on GraphPad Prism 7.03. Area under the curve (AUC) was calculated by performing area under curve analysis on GraphPad Prism 7.03. Similarly, for apoptosis analysis, the percentage of apoptosis combining both “early” (Annexin V positive and DRAQ7 negative) and “late” apoptosis (Annexin V and DRAQ7 positive) cell gates relative to DMSO was graphed using GraphPad Prism 7.03. The AUC, EC50 (concentration of compound that produces half-maximal apoptosis response) and Ymax (maximal percentage of apoptosis achieved) values from apoptosis curves were calculated by performing area under curve analysis and nonlinear regression curve fitting using log(agonist) vs. normalized response—Variable slope analysis on GraphPad Prism 7.03.
(§4) Dose-response proliferation curves for the panel of hematological cell lines and non-linear curve-fit regression were used to determine IC50, AUC, and Emax for % viable cells (Emax for viability varies between 100 at low doses and 0 at high doses, which corresponds to inhibition of all viable cells), and dose-response apoptosis curves were used to determine the EC50, AUC, and Ymax for % apoptosis (Ymax for apoptosis varies from 0 at low doses and 100 at higher doses which corresponds to death of all cells). Tumor cells were exposed to serial dilutions (0.00015 to 10 μM) of Compound 1 or dimethyl sulfoxide (DMSO) control for 5 days. Viability and apoptosis for all cell lines was determined by Annexin V/7-aminoactinomycin D (7-AAD) flow cytometry.

[2] = test system: U-2904 cell line; conditions: U-2904 (DLBCL), 120 h
Description: as §1, §2, §3, §4

[3] = test system: ULA cell line; conditions: ULA (DLBCL), 120 h
Description: as §1, §2, §3, §4

[4] = test system: DOHH2 cell line; conditions: DOHH2 (FL); 120 h
Description: as §1, §2, §3, §4

[5] = test system: SU-DHL-1 cell line; conditions: SU-DHL-1 (DLBCL); 120 h
Description: as §1, §2, §3, §4

[6] = test system: Daudi cell line; conditions: Daudi (BL), 120 h
Description: as §1, §2, §3, §4

[7] = test system: SU-DHL-5 cell line; conditions: SU-DHL-5 (DLBCL); 120 h
Description: as §1, §2, §3, §4

[8] = test system: OCI-LY3 cell line; conditions: OCI-LY3 (DLBCL ABC), 120 h
Description: as §1, §2, §3, §4

[9] = test system: MDS-L cell line; conditions: 120 h
Description: as §1, §2, §3, §4

[10] = test system: HuT-102 cell line; conditions: HuT-102 (TCL), 120 h
Description: as §1, §2, §3, §4

[11] = test system: NU-DUL-1 cell line; conditions: NU-DUL-1 (DLBCL ABC); 120 h
Description: as §1, §2, §3, §4

[12] = test system: TMD8 cell line; conditions: TMD8 (DLBCL ABC); 120 h
Description: as §1, §2, §3, §4

[13] = test system: WSU-DLCL cell line; conditions: WSU-DLCL (DLBCL GCB), 120 h
Description: as §1, §2, §3, §4

[14] = Homo sapiens, read-out: % Viable Cells IC50

O=C1CC[C@H](N2C(=O)c3cccc(NCc4ccc(CN5CC(N6CCOCC6)C5)cc4F)c3C2=O)C(=O)N1 [Compound 1, (S)-2-(2,6-dioxopiperidin-3-yl)-4-((2-fluoro-4-((3-morpholinoazetidin-1-yl)methyl)benzyl)amino)isoindoline-1,3-dione]
% Viable Cells AUC [1]: 312.5
% Viable Cells Emax [1]: 25.55%
Apoptosis AUC [1]: 339.8
Apoptosis Ymax [1]: 35.28%
EC50 [1]: 13.3 nM
IC50 ([1]; read-out: % Viable Cells IC50): 75.5 nM
% Viable Cells AUC [2]: 334.1
% Viable Cells Emax [2]: 7.609%
Apoptosis AUC [2]: 456.1
Apoptosis Ymax [2]: 77.39%
EC50 [2]: 3290 nM
IC50 ([2]; read-out: % Viable Cells IC50): 201 nM
% Viable Cells AUC [3]: 0.5518
% Viable Cells Emax [3]: 0.02523%
Apoptosis AUC [3]: 995.3
Apoptosis Ymax [3]: 99.76%
EC50 [3]: 1.79 nM
IC50 ([3]; read-out: % Viable Cells IC50): 0.99 nM
% Viable Cells AUC [4]: 6.902
% Viable Cells Emax [4]: 0.2066%
Apoptosis AUC [4]: 923.9
Apoptosis Ymax [4]: 95.1%
% Viable Cells AUC [5]: 31.14
% Viable Cells Emax [5]: 2.485%
Apoptosis AUC [5]: 690.1
Apoptosis Ymax [5]: 73.83%
% Viable Cells AUC [6]: 196.4
% Viable Cells Emax [6]: 0%
Apoptosis AUC [6]: 274
Apoptosis Ymax [6]: 84.0%
EC50 ([6]; Homo sapiens): 2320 nM
IC50 [6, 14]: 0.6 nM
% Viable Cells AUC [7]: 1.873
% Viable Cells Emax [7]: 0.1398%
Apoptosis AUC [7]: 934.1
Apoptosis Ymax [7]: 95.23%
IC50 [8, 14]: > 10000 nM
% Viable Cells AUC [8]: 965.1
% Viable Cells Emax [8]: 85.63%
Apoptosis AUC [8]: 24.63
Apoptosis Ymax [8]: 4.493%
% Viable Cells AUC [9]: 182.6
% Viable Cells Emax [9]: 146.7%
Apoptosis AUC [9]: 425.4
Apoptosis Ymax [9]: 100%
EC50 [9]: 1560 nM
IC50 ([9]; read-out: % Viable Cells IC50): 51.3 nM
% Viable Cells AUC [10]: 395.4
% Viable Cells Emax [10]: 36.34%
Apoptosis AUC [10]: 42.75
Apoptosis Ymax [10]: 18.50%
EC50 [10]: 23400 nM
IC50 ([10]; read-out: % Viable Cells IC50): 6.5 nM
% Viable Cells AUC [11]: 22.12
% Viable Cells Emax [11]: 0.0228%
Apoptosis AUC [11]: 962.8
Apoptosis Ymax [11]: 99.84%
% Viable Cells AUC [12]: 4.187
% Viable Cells Emax [12]: 0.245%
Apoptosis AUC [12]: 963.3
Apoptosis Ymax [12]: 97.2%
% Viable Cells AUC [13]: 341.9
% Viable Cells Emax [13]: 27.83%
Apoptosis AUC [13]: 565.1
Apoptosis Ymax [13]: 59.91%
EC50 [13]: 18 nM
IC50 ([13]; read-out: % Viable Cells IC50): 142 nM
